Measured values published in US12287338B2, “Method and compositions for predicting anti-cancer efficacy of compounds targeting apoptosis pathway” (Ascentage Pharma (Suzhou) Co., Ltd., priority 2020, dated 2025).

Tests used:
Assay type in all cases: cell-based
[1] = target: T1, Bcl-xL:BIM and Bcl-2:BIM complex (Homo sapiens, UniProt Q07817); assay: Bcl-2:BIM and Bcl-xL:BIM complex analysis by MSD advanced ELISA in Toledo cells; settings: Toledo and RS4; 11 cell lines (FIGS. 4A, 4B), 24 hours
T1 construct: A diffuse large B cell lymphoma line, Toledo, and an acute lymphocytic leukemia line, RS4; endogenous in cells; host or cells: Toledo
Procedure: (§1) A diffuse large B cell lymphoma line, Toledo, and an acute lymphocytic leukemia line, RS4; 11, were chosen for the study. Cells were treated for 24 hours with Compound B4 or ABT-737 at indicated concentrations (0.025 uM, 0.04 uM and 0.06 uM, respectively) and harvested for complex analysis. Both Bcl-2:BIM and Bcl-xL:BIM complex were analyzed using MSD advanced ELISA methods.

[2] = tested on: Bcl-xL:BIM and Bcl-2:BIM complex; assay: as above; settings: Toledo cell line, 24 hours, 0.025, 0.04 and 0.06 uM
Procedure: as §1

[3] = tested on: Bcl-xL:BIM and Bcl-2:BIM complex; assay: Bcl-2:BIM and Bcl-xL:BIM complex analysis by MSD advanced ELISA in RS4; 11 cells; settings: 11 cell line, 24 hours, 0.025, 0.04 and 0.06 uM
Procedure: as §1

T1 sequence (Q07817 whole entry, one chain of several): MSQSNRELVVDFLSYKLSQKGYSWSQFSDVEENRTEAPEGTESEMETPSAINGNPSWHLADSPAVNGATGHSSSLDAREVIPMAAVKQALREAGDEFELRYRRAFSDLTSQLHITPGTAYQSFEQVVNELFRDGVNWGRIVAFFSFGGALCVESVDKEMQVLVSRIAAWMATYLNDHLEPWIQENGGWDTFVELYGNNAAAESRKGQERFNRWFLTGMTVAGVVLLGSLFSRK

Cc1c(S(C)(=O)=O)c(-c2cc(F)cc(N3CCN(c4ccc(NS(=O)(=O)c5ccc(N[C@H](CCN6CCC(C(=O)O)CC6)CSc6ccccc6)c(S(=O)(=O)C(F)(F)F)c5)cc4)CC3)c2)c(-c2ccc(Cl)cc2)n1C(C)C [Compound B4, (R)-1-(3-(4-(N-(4-(4-(3-(2-(4-chlorophenyl)-1-isopropyl-5-methyl-4-(methylsulfonyl)-1H-pyrrol-3-yl)-5-fluorophenyl)piperazin-1-yl)phenyl)sulfamoyl)-2-(trifluoromethylsulfonyl)phenylamino)-4-(phenylthio)butyl)piperidine-4-carboxylic acid]
disruption of Bcl-xL:BIM complex compared with ABT-737 [1]: disrupted Bcl-xL:BIM complex more intensely than ABT-737 | disruption of Bcl-xL:BIM vs Bcl-2:BIM complex [2]: more potently disrupted Bcl-xL:BIM than Bcl-2:BIM complex | disruption of Bcl-xL:BIM vs Bcl-2:BIM complex [3]: more potently disrupted Bcl-xL:BIM than Bcl-2:BIM complex
